Like-named read-outs stand apart in the source and are kept apart here.
What was measured:
[1] = biological target: T1, cellular IDO1 in HeLa cells (Homo sapiens, UniProt P14902); assay: HeLa cell-based IDO1 Kyn (kynurenine) production assay; details: IFN-γ 100 ng/mL, 48 hours
T1 construct: endogenous in cells; host or cells: HeLa cells (American Type Tissue Culture Collection), induced with human recombinant IFN-γ
Method: HeLa Cell-Based IDO1 Kyn (Kynurenine) Production Assay:
The inhibitory activity of IDO1 inhibitors is determined by using a colorimetric reaction to measure Kyn generated from L-Trp (L-Tryptophon) oxidation by cellular IDO1 in HeLa cells after induction of IDO1 by IFN-γ.
Hela cells were obtained from the American Type Tissue Culture Collection and recovered in 10% FBS-containing phenol red-free DMEM medium supplemented with 0.4 mM L-Trp. Cells were plated onto a 96-well plate (100 μl/well) at 8000 cells per well. Human recombinant IFN-γ (8901SC, CST) was added to cells (final concentration 100 ng/mL) to stimulate endogenous IDO1. Compounds at different concentrations diluted in dimethylsulfoxide (DMSO) were added simultaneously with IFN-γ. Cells were kept at 37° C. in a humidified incubator supplied with 5% CO2. After 48 hours of incubation, 100 μl supernatant from each well was removed to a new plate. The protein in the medium was precipitated with the addition of 8 μl 6N trichloroacetic acid. The plate was incubated at 60° C. for 45 min and then centrifugation at 2500 rpm for 10 min to remove sediments. 80 μl supernatants were carefully removed to a new clean plate and added with an equal volume of 2% 4-(Dimethylamino) benzaldehyde (D2004, sigma) dissolved in glacial acetic acid. The absorbance at 480 nm wavelength derived from Kyn was measured using a FULOstar OMEGA plate reader (BMG LABTECH). The IC50 for each compound was derived from fitting the dose-response data to the four-parameter logistic model by using Graphpad Prism software.

Recombinant IDO1 = biological target: T2, Recombinant IDO1 (Homo sapiens, UniProt P14902); assay: IDO1 enzymatic assay; format: biochemical; details: 50 nM IDO1, 1.3 mM D-tryptophan, read-out: Enzyme IC50 (nM) IDO1
T2 construct: His tag (N); made in house; host or cells: E. coli
Method: Recombinant IDO1 was overexpressed and purified from E. coli cells with an N-terminal His tag. IDO1 enzymatic assay was carried out using a methodology similar to described in the literature (J. Biol. Chem. (1980), 255, 1339-1345.). The reaction mixture contains 50 nM IDO1, 1.3 mM D-tryptophan, 5 mM L-ascorbic acid, 6.25 μM methylene Blue, 0.4 mg/mL catalase and compound (or DMSO) in a buffer containing 50 mM potassium phosphate pH 7.5 and 0.1% BSA. After incubation at 24° C. for 1.5 hours, absorbance of the reaction mixture was continuously read at 321 nm to monitor the formation of N′-formylkynurenine by a FULOstar OMEGA plate reader (BMG LABTECH) for 1 hour. The enzymatic activity was determined by measuring the slope of the linear absorbance increase as a function of time. The IC50s are calculated based on remaining enzyme activity in the presence of increasing concentrations of compounds.

[2] = Table 2, 8-substituted imidazo[1,5-a]pyridines
[3] = Table 1, 5-substituted imidazo[1,5-a]pyridines

T1 sequence (P14902 whole entry): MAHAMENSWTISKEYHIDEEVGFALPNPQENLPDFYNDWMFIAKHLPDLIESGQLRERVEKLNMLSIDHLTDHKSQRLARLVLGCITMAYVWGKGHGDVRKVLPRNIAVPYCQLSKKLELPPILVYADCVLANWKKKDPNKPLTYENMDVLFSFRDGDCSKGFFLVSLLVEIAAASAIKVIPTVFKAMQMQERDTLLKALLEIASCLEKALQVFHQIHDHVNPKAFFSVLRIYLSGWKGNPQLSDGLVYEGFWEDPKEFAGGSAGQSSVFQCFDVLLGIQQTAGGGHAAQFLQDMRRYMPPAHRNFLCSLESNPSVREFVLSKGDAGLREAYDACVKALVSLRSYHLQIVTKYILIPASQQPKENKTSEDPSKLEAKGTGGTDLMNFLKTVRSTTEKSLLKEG
T2 sequence (P14902 whole entry): as above

Molecule | EC50 [1, 2] [nM] | IC50 (Recombinant IDO1; [2]) [nM] | EC50 [1, 3] [nM] | IC50 (Recombinant IDO1; [3]) [nM]
OC(c1c(C2CC2)ccn2cncc12)C1CC2CC2C1 (stereo not shown) [Example B139, bicyclo[3.1.0]hexan-3-yl(7-cyclopropylimidazo[1,5-a]pyridin-8-yl)methanol] | 199 | 85 |  | 
O=C(O)c1cccc(C(O)c2c(C3CC3)ccc3cncn23)c1 (stereo not shown) [Example A159, 3-((6-cyclopropylimidazo[1,5-a]pyridin-5-yl)(hydroxy)methyl)benzoic acid] |  |  | > 10000 | 5500
NS(=O)(=O)N1CCCC(C(O)c2c(C3CC3)ccn3cncc23)C1 (single isomer, unassigned) [Example B135b, 3-((7-Cyclopropylimidazo[1,5-a]pyridin-8-yl)(hydroxy)methyl)piperidine-1-sulfonamide] | 1350 | 950 |  | 
OC(c1c(C2CC2)ccn2cncc12)C1C2CC3CC(C2)CC1C3 (stereo not shown) [Example B117, (Adamantan-2-yl)(7-cyclopropylimidazo[1,5-a]pyridin-8-yl)methanol] | 401 | 1100 |  | 
OC(c1c(C2CC2)ccn2cncc12)[C@H]1CC[C@@H](O)CC1 (single isomer, unassigned) [Example B119d] | 2990 | 110 |  | 
CS(=O)(=O)N1CCCC(C(O)c2c(C3CC3)ccn3cncc23)C1 (single isomer, unassigned) [Example B130b, (7-Cyclopropylimidazo[1,5-a]pyridin-8-yl)(1-(methylsulfonyl)piperidin-3-yl)methanol] | 909 | 1200 |  | 
OC(c1c([C@H]2C[C@@H]2F)ccn2cncc12)C1CCCCC1 (single isomer, unassigned) [Example B128c, Cyclohexyl(7-((trans)-2-fluorocyclopropyl)imidazo[1,5-a]pyridin-8-yl)methanol] | > 10000 | 110000 |  | 
OC(c1c(C2CCCC2)ccc2cncn12)C1CCCCC1 (stereo not shown) [Example A158, cyclohexyl(6-cyclopentylimidazo[1,5-a]pyridin-5-yl)methanol] |  |  | 933 | 880
CC(C)C(O)c1cccc2cncn12 (stereo not shown) [Example A005, 1-(imidazo[1,5-a]pyridin-5-yl)-2-methylpropan-1-ol] |  |  | > 10000 | 1500
1-(7-bromo-8-chloroimidazo[1,5-a]pyridin-5-yl)-2-cyclohexylethan-1-ol [Example A147] |  |  | 2790 | 420
OCC1(C(O)c2c(C3CC3)ccn3cncc23)CCCCC1 (stereo not shown) [Example B136, (7-Cyclopropylimidazo[1,5-a]pyridin-8-yl)(1-(hydroxymethyl)cyclohexyl)methanol] | 286 | 760 |  | 
CC(=O)N1CCCC(C(O)c2c(C3CC3)ccn3cncc23)C1 (single isomer, unassigned) [Example B133b, 1-(3-((7-Cyclopropylimidazo[1,5-a]pyridin-8-yl)(hydroxy)methy)piperidin-1-yl)ethan-1-one] | 6810 | 1100 |  | 
OC(c1c(C2CC2)ccn2cncc12)[C@H]1CC[C@H](O)CC1 (single isomer, unassigned) [Example B119a, (trans)-4-((7-Cyclopropylimidazo[1,5-a]pyridin-8-yl)(hydroxy)methyl)cyclohexan-1-ol] | 1360 | 280 |  | 
OC(CC12CC3CC(CC(C3)C1)C2)c1c(C2CC2)ccc2cncn12 (stereo not shown) [Example A163, 2-(Adamantan-1-yl)-1-(6-cyclopropylimidazo[1,5-a]pyridin-5-yl)ethan-1-ol] |  |  | 102 | 94
NCC(=O)N1CCCC(C(O)c2c(C3CC3)ccn3cncc23)C1 (stereo not shown) [Example B132, 2-Amino-1-(3-((7-cyclopropylimidazo[1,5-a]pyridin-8-yl)(hydroxy)methyl)piperidin-1-yl)ethan-1-one] | > 10000 | 13000 |  | 
OCC1(C(O)c2cc(Cl)cc3cncn23)CCCCC1 (stereo not shown) [Example A106, (7-chloroimidazo[1,5-a]pyridin-5-yl)(1-(hydroxymethyl)cyclohexyl)methanol] |  |  | 1660 | 120

Molecule | EC50 [1, 2] [nM] | IC50 (Recombinant IDO1; [2]) [nM] | EC50 [1, 3] [nM] | IC50 (Recombinant IDO1; [3]) [nM]
OC(CC1CC1)c1cccn2cncc12 (stereo not shown) [Example B007, 2-cyclopropyl-1-(imidazo[1,5-a]pyridin-8-yl)ethan-1-ol] | > 10000 | 6600 |  | 
CC(C)(C)C(O)c1cccc2cncn12 (stereo not shown) [Example A004, 1-(imidazo[1,5-a]pyridin-5-yl)-2,2-dimethylpropan-1-ol] |  |  | > 10000 | 360
OC(c1c(C2CC2)ccn2cncc12)C1CCC(c2ccccc2)CC1 (single isomer, unassigned) [Example B143a, (S)-(7-cyclopropylimidazo[1,5-a]pyridin-8-yl)(trans or cis-4-phenylcyclohexyl)methanol] | 79 | 56 |  | 
OC1CCC(C(O)c2c(C3CC3)ccc3cncn23)CC1 (single isomer, unassigned) [Example A142b] |  |  | 312 | 31
OC(c1c(C2CC2)ccn2cncc12)C1CC2CCC1CC2 (stereo not shown) [Example B124, Bicyclo[2.2.2]octan-2-yl(7-cyclopropylimidazo[1,5-a]pyridin-8-yl)methanol] | 376 | 440 |  | 
CC(C1CCCCC1)C(O)c1c(Cl)ccc2cncn12 (stereo not shown) [Example A121, 1-(6-chloroimidazo[1,5-a]pyridin-5-yl)-2-cyclohexylpropan-1-ol] |  |  | 1570 | 29
CC(C)c1ccn2cncc2c1C(O)[C@H]1CC[C@H](O)CC1 (single isomer, unassigned) [Example B121a, (trans)-4-(Hydroxy(7-isopropylimidazo[1,5-a]pyridin-8-yl)methyl) cyclohexan-1-ol] | 719 | 210 |  | 
CC(C)c1ccn2cncc2c1C(O)C1CCCCC1 (single isomer, unassigned) [Example B106b] | > 10000 | 1800 |  | 
OC(c1c(C2CCC2)ccn2cncc12)C1CCCCC1 (stereo not shown) [Example B114, (7-Cyclobutylimidazo[1,5-a]pyridin-8-yl)(cyclohexyl)methanol] | 3040 | 630 |  | 
OC(CC1CCCCC1)c1c(C2CC2)ccn2cncc12 (single isomer, unassigned) [Example B110b] | > 10000 | 4.9 |  | 
O=C(c1ccccc1)N1CCCC(C(O)c2c(C3CC3)ccn3cncc23)C1 (stereo not shown) [Example B134, (3-((7-Cyclopropylimidazo[1,5-a]pyridin-8-yl)(hydroxy)methyl)piperidin-1-yl)(phenyl) methanone] | > 10000 | 2000 |  | 
OC1CC2CC1CC2C(O)c1c(C2CC2)ccn2cncc12 (stereo not shown) [Example B142, 5-((7-cyclopropylimidazo[1,5-a]pyridin-8-yl)(hydroxy)methyl)bicyclo[2.2.1]heptan-2-ol] | 6320 | 1300 |  | 
OC(c1c(C2CC2)ccn2cncc12)C1CCC(c2ccccc2)CC1 (mixture of isomers) [Example B143, (7-cyclopropylimidazo[1,5-a]pyridin-8-yl)(4-phenylcyclohexyl)methanol] | 149 | 100 |  | 
O=C1C2CCC(C2)C1C(O)c1c(C2CC2)ccc2cncn12 (stereo not shown) [Example A161, 3-((6-cyclopropylimidazo[1,5-a]pyridin-5-yl)(hydroxy)methyl)bicyclo[2.2.1]heptan-2-one] |  |  | > 10000 | 57000
CS(=O)(=O)N1CCCC(C(O)c2c(C3CC3)ccn3cncc23)C1 (single isomer, unassigned) [Example B130a, (7-Cyclopropylimidazo[1,5-a]pyridin-8-yl)(1-(methylsulfonyl)piperidin-3-yl)methanol] | > 10000 | 1400 |  | 
OC(c1c([C@H]2C[C@H]2F)ccn2cncc12)C1CCCCC1 (relative stereo) [Example B126a, cyclohexyl(7-(cis-2-fluorocyclopropyl)imidazo [1,5-a]pyridin-8-yl)methanol] | 942 | 340 |  | 

Reference: US10280163B2 (BeiGene, Ltd., priority 2015, dated 2019)
